Measured values: article PMC5298241, “Mitochondria-penetrating peptides conjugated to desferrioxamine as chelators for mitochondrial labile iron” (PLoS ONE, 2017)
Like-named read-outs stand apart in the source and are kept apart here. Numbered stars: 1 amine (or outer) side, 2 acyl side, 3 side chain; on linkers, the order of the positions; unused ones are H or OH. Square brackets hold non-standard residues; d marks the D form. Peptide text beside a SMILES is read from it. * marks the point of attachment. 5TAMRA = CN(C)c1ccc2c(c1)Oc1cc(N(C)C)ccc1C21OC(=O)c2cc(C(=O)*)ccc21; DFO = CC(=O)N(O)CCCCCNC(=O)CCC(=O)N(O)CCCCCNC(=O)CCC(=O)N(O)CCCCCN*; Cha = N[C@@H](CC1CCCCC1)C(=O)O; Suc = O=C(CCC(=O)[*:2])[*:1]

What was measured:
[1] = system: A2780 cells
Method: (§1) A2780 (human ovarian cancer) cell line was obtained from Fox Chase Cancer Center (USA) and cultured in RPMI-1640 medium supplemented with 10% FBS and 1% penicillin/streptomycin. Cells were incubated at 37°C in a humidified incubator with a 5% CO2.
(§2) A2780 cells were plated in 96-well flat-bottom tissue culture plates (Starstedt) at 25,000 cells per well. The culture medium was removed, and cells were washed. Cellular viability was analyzed after an overnight incubation at 37°C with 5% CO2 using the CCK-8 viability dye (Dojindo, Rockville, Maryland) at an absorbance of 450 nm. From the resulting dose-response curves, 50% growth inhibitory concentration (IC50) values were determined by interpolation [22].

[2] = system: mitochondria of A2780 cells; assay: Mitochondrial localization (colocalization with MitoTracker Deep Red); assay type: cell-based, human; conditions: TAMRA-labeled mtDFO 1–10 μM, 1 h, MitoTracker Deep Red 30 min, epifluorescence microscopy, ImageJ
Method: A2780 cells were seeded in an imaging dish in 2 mL of growth medium at 60% confluence. The growth medium was swapped with premixed medium containing 1–10 μM of TAMRA-mtDFO, and the cells were allowed to incubate with the dye for 1 h. MitoTracker Deep Red was added to the cells at 1.0–4.0 μM concentrations and allowed to incubate for 30 min. At the end of the incubation period, the medium was aspirated, and the cells were washed with 3 × 1 mL PBS and incubated with 2 mL of dye-free DMEM. The imaging experiments were performed using a Zeiss Axiovert 200M inverted epifluorescence microscope equipped with an EM-CCD digital camera (Hamamatsu) and a MS200 XY Piezo Z stage (Applied Scientific Instruments). The light source was an X-Cite 120 metal-halide lamp (EXFO), and the fluorescence images were obtained with an oil-immersion objective at 63× magnification. The microscope was operated by the Volocity software program of Perkin-Elmer. Colocalization of the dyes was quantitated using the program ImageJ using a previously described protocols.

[3] = Antioxidant activity (iron-catalysed oxidation of DHR by ascorbate); assay type: biochemical; conditions: 20 μM chelator, 40 μM ascorbic acid, 50 μM DHR in HBS; Fe(NTA) or serum of iron-overloaded patients; 37°C, slopes 15−40 min
Method: The standard ferric nitrilotriacetate (Fe(NTA)) complex (1:3 Fe:NTA molar ratio) was prepared by adding FAS to a stock solution of aqueous NTA, and allowed to react for 1 h at 37°C under air so that iron is oxidized to Fe(III) (evidenced by the change of color to deep yellow). Then, 180 μL of a mixture of 40 μM ascorbic acid, 50 μM DHR, and 20 μM chelators (DFO, DFO-Tat, DFO-1A, DFO-SS02 e DFO-SS20) in HBS was placed in a 96-well microplate and treated with 20 μL of either Fe(NTA) at different concentrations or sera from iron overloaded patients. Assays were performed in duplicate. Sera samples were furnished by Dr. Nelson Hamerschlak, Albert Einstein Hospital, São Paulo. Fluorescence was measured in a BMG FluoStar Optima instrument for 60 min at 37°C (λexc/λem = 485/520 nm). The slopes (indicating rate of oxidation, presented in fluorescence units per minute) of the oxidation curves were calculated in the time range 15−40 min and were plotted against iron concentration.

[4] = system: A2780 cells; assay: cells; conditions: Homo sapiens, A2780, 24 h
Method: as §1, §2

[5] = A2780 cells, 24 h (overnight incubation at 37°C, 5% CO2), CCK-8 viability dye, absorbance 450 nm, interpolation of dose-response curves, average ± s.d. of at least three independent experiments

## CC(=O)N(O)CCCCCNC(=O)CCC(=O)N(O)CCCCCNC(=O)CCC(=O)N(O)CCCCCNC(=O)CCC(=O)N[C@@H](CC1CCCCC1)C(=O)N[C@H](CCCNC(=N)N)C(=O)N[C@@H](CC1CCCCC1)C(=O)N[C@@H](CCCCN)C(=O)N[C@@H](CC1CCCCC1)C(=O)N[C@H](CCCNC(=N)N)C(=O)N[C@@H](CC1CCCCC1)C(=O)N[C@@H](CCCCN)C(N)=O [DFO-1A] ({DFO-Suc}-[Cha][dR][Cha]K[Cha][dR][Cha]K-NH2)
[1]; 24 h
  IC50: 108 ± 2.51 µM

## CC(=O)N(O)CCCCCNC(=O)CCC(=O)N(O)CCCCCNC(=O)CCC(=O)N(O)CCCCCNC(=O)CCC(=O)N[C@@H](Cc1ccccc1)C(=O)N[C@H](CCCNC(=N)N)C(=O)N[C@@H](Cc1ccccc1)C(=O)N[C@@H](CCCCN)C(N)=O [DFO-SS20] ({DFO-Suc}-F[dR]FK-NH2)
[1]; 24 h
  IC50: 62.4 ± 1.13 µM

## carboxy-tetramethylrhodamine [TAMRA]
[2]
  Rr = Pearson correlation coefficient (colocalization with MitoTracker): does not locate by itself in the mitochondria

## CC(=O)N(O)CCCCCNC(=O)CCC(=O)N(O)CCCCCNC(=O)CCC(=O)N(O)CCCCCNC(=O)CCC(=O)N[C@@H](Cc1ccccc1)C(=O)N[C@H](CCCNC(=N)N)C(=O)N[C@@H](Cc1ccccc1)C(=O)N[C@@H](CCCCN)C(=O)N[C@@H](CCCCNC(=O)c1ccc2c(c1)C(=O)OC21c2ccc(N(C)C)cc2Oc2cc(N(C)C)ccc21)C(N)=O [DFO-SS20-TAMRA] ({DFO-Suc}-F[dR]FKK(5TAMRA)-NH2)
[1]; 24 h
  IC50: 7.91 ± 1.19 µM

## CC(=O)N(O)CCCCCNC(=O)CCC(=O)N(O)CCCCCNC(=O)CCC(=O)N(O)CCCCCN [DFO, Desferrioxamine]
[3]
  Suppression of iron-catalysed oxidation of the DHR probe: efficiently suppressed
[4]
  IC50: 1450 ± 130 µM

## CC(=O)N(O)CCCCCNC(=O)CCC(=O)N(O)CCCCCNC(=O)CCC(=O)N(O)CCCCCNC(=O)CCC(=O)N[C@@H](Cc1c(C)cc(O)cc1C)C(=O)N[C@H](CCCNC(=N)N)C(=O)N[C@@H](Cc1ccccc1)C(=O)N[C@@H](CCCCN)C(N)=O [DFO-SS02]
[1]; [5]
  IC50: 42.9 ± 1.06 µM

## CC(=O)N(O)CCCCCNC(=O)CCC(=O)N(O)CCCCCNC(=O)CCC(=O)N(O)CCCCCNC(=O)CCC(=O)N[C@@H](CC1CCCCC1)C(=O)N[C@H](CCCNC(=N)N)C(=O)N[C@@H](CC1CCCCC1)C(=O)N[C@@H](CCCCN)C(=O)N[C@@H](CC1CCCCC1)C(=O)N[C@H](CCCNC(=N)N)C(=O)N[C@@H](CC1CCCCC1)C(=O)N[C@@H](CCCCN)C(=O)N[C@@H](CCCCNC(=O)c1ccc2c(c1)C(=O)OC21c2ccc(N(C)C)cc2Oc2cc(N(C)C)ccc21)C(N)=O [DFO-1A-TAMRA] ({DFO-Suc}-[Cha][dR][Cha]K[Cha][dR][Cha]KK(5TAMRA)-NH2)
[1]; 24 h
  IC50: 2.97 ± 1.06 µM

## CC(=O)N(O)CCCCCNC(=O)CCC(=O)N(O)CCCCCNC(=O)CCC(=O)N(O)CCCCCNC(=O)CCC(=O)N[C@@H](CCCNC(=N)N)C(=O)N[C@@H](CCCCN)C(=O)N[C@@H](CCCCN)C(=O)N[C@@H](CCCNC(=N)N)C(=O)N[C@@H](CCCNC(=N)N)C(=O)N[C@@H](CCC(N)=O)C(=O)N[C@@H](CCCNC(=N)N)C(=O)N[C@@H](CCCNC(=N)N)C(=O)N[C@@H](CCCNC(=N)N)C(=O)O [DFO-TAT]
[1]; [5]
  IC50: 111 ± 1.17 µM
